{"source": "patent US10982284B2", "about": "“Compositions and methods APC, CREB, and BAD pathways to assess and affect cancer” (H. Lee Moffitt Cancer Center and Research Institute, Inc., priority 2011, dated 2021)", "assay_in_all_cases": "CellTiter-Blue cell viability assay", "type_in_all_cases": "cell-based, human", "key": {"[1]": {"test_system": "CAOV3", "conditions": "CAOV3 ovarian cancer cell line, 72 hours, 50% reduction in growth/viability", "text": "(§1) Ovarian cancer cell lines were obtained from the American Type Culture Collection (Manassas, Va.) (CAOV3, OV90, OVCAR3, SKOV3, TO[…]); from the European Collection of Cell Cultures, Salisbury, UK (A2780CP, A2780S); or from Kyoto University, Kyoto, Japan ([…], Tyknu, and TyknuC is R) or were kind gifts from Dr. Patricia Kruk, Department of Pathology, College of Medicine, University of South Florida, Tampa, Fla., and Susan Murphy, PhD, Dept of OBGYN/Division of GYN Oncology, Duke University, Durham, N.C. […] Cell lines were maintained in RPMI-1640 (Invitrogen, Carlsbad, Calif.) supplemented with 10% fetal bovine serum (Fisher Scientific, Pittsburgh, Pa.), 1% sodium pyruvate, 1% penicillin/streptomycin (Cellgro, Manassas, Va.), and 1% nonessential amino acids (HyClone, Hudson, N.H.). Mycoplasma testing was performed every 6 months following manufacturer's protocol (Lonza, Rockland, Me.). Drug activity was evaluated using a high-throughput CellTiter-Blue cell viability assay. […] After cell adherence, increasing concentrations of cisplatin, carboplatin (Sigma-Aldrich, St. Louis, Mo.), paclitaxel (Sequoia Research Products Ltd., Pangbourne, UK), or carboplatin plus paclitaxel (carbotaxol: constant molar ratio of carboplatin to paclitaxel of 20,000:1) were added to appropriate wells using an automated pipetting station. Four replicate wells were used for each drug concentration and vehicle controls. […] The cells were incubated with the drug for 72 hours, and 5 μL of CellTiter-Blue reagent (Promega Corp) was added to each well. Fluorescence was read at […] using a Synergy 4 microplate reader (Bio-Tek Instruments, Inc., Winooski, Vt.)."}, "[2]": {"test_system": "OVCAR10", "conditions": "OVCAR10 ovarian cancer cell line, 72 hours, 50% reduction in growth/viability", "text": "as §1"}, "[3]": {"test_system": "OVCA433", "conditions": "OVCA433 ovarian cancer cell line, 72 hours, 50% reduction in growth/viability", "text": "as §1"}, "[4]": {"test_system": "OV2008", "conditions": "OV2008 ovarian cancer cell line, 72 hours, 50% reduction in growth/viability", "text": "as §1"}, "[5]": {"test_system": "M41CSR", "conditions": "M41CSR ovarian cancer cell line, 72 hours, 50% reduction in growth/viability", "text": "as §1"}, "[6]": {"test_system": "TyknuCisR", "conditions": "TyknuCisR ovarian cancer cell line, 72 hours, 50% reduction in growth/viability", "text": "as §1"}, "[7]": {"test_system": "TOV112D", "conditions": "TOV112D ovarian cancer cell line, 72 hours, 50% reduction in growth/viability", "text": "as §1"}, "[8]": {"test_system": "A2008", "conditions": "A2008 ovarian cancer cell line, 72 hours, 50% reduction in growth/viability", "text": "as §1"}, "[9]": {"test_system": "C13", "conditions": "C13 ovarian cancer cell line, 72 hours, 50% reduction in growth/viability", "text": "as §1"}, "[10]": {"test_system": "CAOV2", "conditions": "CAOV2 ovarian cancer cell line, 72 hours, 50% reduction in growth/viability", "text": "as §1"}, "[11]": {"test_system": "OVCA432", "conditions": "OVCA432 ovarian cancer cell line, 72 hours, 50% reduction in growth/viability", "text": "as §1"}, "[12]": {"test_system": "OV90", "conditions": "OV90 ovarian cancer cell line, 72 hours, 50% reduction in growth/viability", "text": "as §1"}, "[13]": {"test_system": "OVCA429", "conditions": "OVCA429 ovarian cancer cell line, 72 hours, 50% reduction in growth/viability", "text": "as §1"}, "[14]": {"test_system": "MCAS", "conditions": "MCAS ovarian cancer cell line, 72 hours, 50% reduction in growth/viability", "text": "as §1"}, "[15]": {"test_system": "IMCC3", "conditions": "IMCC3 ovarian cancer cell line; 72 hours; 50% reduction in growth/viability", "text": "as §1"}, "[16]": {"test_system": "OVCA420", "conditions": "OVCA420 ovarian cancer cell line; 72 hours; 50% reduction in growth/viability", "text": "as §1"}, "[17]": {"test_system": "OVCAR3", "conditions": "OVCAR3 ovarian cancer cell line, 72 hours, 50% reduction in growth/viability", "text": "as §1"}, "[18]": {"test_system": "M41", "conditions": "M41 ovarian cancer cell line, 72 hours, 50% reduction in growth/viability", "text": "as §1"}, "[19]": {"test_system": "A2780CP", "conditions": "A2780CP ovarian cancer cell line, 72 hours, 50% reduction in growth/viability", "text": "as §1"}, "[20]": {"test_system": "IGR-OV1", "conditions": "IGR-OV1 ovarian cancer cell line, 72 hours, 50% reduction in growth/viability", "text": "as §1"}, "[21]": {"test_system": "Tyknu", "conditions": "Tyknu ovarian cancer cell line, 72 hours, 50% reduction in growth/viability", "text": "as §1"}}, "note": "pIC50: −log10 of the molar value.", "data": [{"smiles": "N.N.O=C([O-])C1(C(=O)[O-])CCC1.[Pt+2]", "note": "[Carboplatin, carboplatin]", "values": [{"measurement": "pIC50", "setting": "[1]", "result": 4.16}, {"measurement": "pIC50", "setting": "[2]", "result": 3.89}, {"measurement": "pIC50", "setting": "[3]", "result": 3.57}, {"measurement": "pIC50", "setting": "[4]", "result": 4.35}, {"measurement": "pIC50", "setting": "[5]", "result": 4.32}, {"measurement": "pIC50", "setting": "[6]", "result": 4.20}, {"measurement": "pIC50", "setting": "[7]", "result": 4.12}, {"measurement": "pIC50", "setting": "[8]", "result": 4.69}, {"measurement": "pIC50", "setting": "[9]", "result": 4.25}, {"measurement": "pIC50", "setting": "[10]", "result": 4.15}, {"measurement": "pIC50", "setting": "[11]", "result": 4.20}, {"measurement": "pIC50", "setting": "[12]", "result": 3.67}, {"measurement": "pIC50", "setting": "[13]", "result": 3.65}, {"measurement": "pIC50", "setting": "[14]", "result": 3.63}, {"measurement": "pIC50", "setting": "[15]", "result": 4.16}, {"measurement": "pIC50", "setting": "[16]", "result": 3.78}, {"measurement": "pIC50", "setting": "[17]", "result": 4.08}, {"measurement": "pIC50", "setting": "[18]", "result": 4.38}, {"measurement": "pIC50", "setting": "[19]", "result": 4.03}, {"measurement": "pIC50", "setting": "[20]", "result": 4.18}, {"measurement": "pIC50", "setting": "[21]", "result": 5.02}]}, {"smiles": "CC(=O)O[C@H]1C(=O)[C@@]2(C)[C@H]([C@H](OC(=O)c3ccccc3)[C@]3(O)C[C@H](OC(=O)[C@H](O)[C@@H](NC(=O)c4ccccc4)c4ccccc4)C(C)=C1C3(C)C)[C@]1(OC(C)=O)CO[C@@H]1C[C@@H]2O", "note": "[Paclitaxel, paclitaxel]", "values": [{"measurement": "pIC50", "setting": "[1]; Homo sapiens, Caov-3", "result": 8.34}, {"measurement": "pIC50", "setting": "[2]; Homo sapiens", "result": 8.15}, {"measurement": "pIC50", "setting": "[3]; Homo sapiens", "result": 8.68}, {"measurement": "pIC50", "setting": "[4]; Homo sapiens", "result": 7.86}, {"measurement": "pIC50", "setting": "[5]; Homo sapiens", "result": 8.60}, {"measurement": "pIC50", "setting": "[6]; Homo sapiens", "result": 8.14}, {"measurement": "pIC50", "setting": "[7]; Homo sapiens", "result": 6.96}, {"measurement": "pIC50", "setting": "[8]; Homo sapiens", "result": 8.24}, {"measurement": "pIC50", "setting": "[9]; Homo sapiens", "result": 8.49}, {"measurement": "pIC50", "setting": "[10]; Homo sapiens", "result": 7.69}, {"measurement": "pIC50", "setting": "[11]; Homo sapiens", "result": 8.20}, {"measurement": "pIC50", "setting": "[12]; Homo sapiens, OV-90", "result": 6.97}, {"measurement": "pIC50", "setting": "[13]; Homo sapiens", "result": 8.54}, {"measurement": "pIC50", "setting": "[14]; Homo sapiens", "result": 8.54}, {"measurement": "pIC50", "setting": "[17]; Homo sapiens, OVCAR-3", "result": 7.77}, {"measurement": "pIC50", "setting": "[18]; Homo sapiens", "result": 8.20}, {"measurement": "pIC50", "setting": "[19]; Homo sapiens, A2780C/P", "result": 8.40}, {"measurement": "pIC50", "setting": "[20]; Homo sapiens, IGROV-1", "result": 7.43}, {"measurement": "pIC50", "setting": "[21]; Homo sapiens", "result": 8.08}]}]}
